Common to all, as to assay: SIRT1 activation dose-response, OAcADPr assay with Ac-p53(W5) substrate
Holding throughout (assay type): biochemical

The target in one data set is T1, full-length hSIRT1 E230A (Homo sapiens, UniProt Q96EB6, E230A).
T1 construct: His6 (C); made in house
T1 sequence (Q96EB6 1-747 E230A): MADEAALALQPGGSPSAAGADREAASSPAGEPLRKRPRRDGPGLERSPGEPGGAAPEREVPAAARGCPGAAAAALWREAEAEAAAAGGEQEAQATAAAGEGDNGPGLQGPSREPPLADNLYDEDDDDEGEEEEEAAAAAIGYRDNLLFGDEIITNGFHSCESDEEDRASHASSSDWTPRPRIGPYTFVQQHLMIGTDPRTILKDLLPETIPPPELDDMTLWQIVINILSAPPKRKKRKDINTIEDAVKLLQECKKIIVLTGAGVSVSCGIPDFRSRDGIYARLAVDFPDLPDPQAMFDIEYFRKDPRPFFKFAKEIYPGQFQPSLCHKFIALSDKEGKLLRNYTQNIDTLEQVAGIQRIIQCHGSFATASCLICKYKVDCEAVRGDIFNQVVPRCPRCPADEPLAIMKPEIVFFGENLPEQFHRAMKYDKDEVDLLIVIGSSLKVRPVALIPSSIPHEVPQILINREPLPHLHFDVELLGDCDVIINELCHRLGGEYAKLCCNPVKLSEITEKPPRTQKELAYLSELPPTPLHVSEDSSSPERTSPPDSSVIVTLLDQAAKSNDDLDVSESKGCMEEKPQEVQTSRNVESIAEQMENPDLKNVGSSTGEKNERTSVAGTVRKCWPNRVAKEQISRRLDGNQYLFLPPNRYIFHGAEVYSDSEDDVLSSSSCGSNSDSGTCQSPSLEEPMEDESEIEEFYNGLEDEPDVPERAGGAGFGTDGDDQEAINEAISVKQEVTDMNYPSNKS
The conditions noted are these: for EC50: hSIRT1 E230A, activation dose-response, Ac-p53(W5) substrate.

For the next data set, the target named is T2, full-length hSIRT1 T219A (Homo sapiens, UniProt Q96EB6, T219A).
T2 construct: The following point mutants of full-length hSIRT1 were generated; His6 (C); made in house
T2 sequence (Q96EB6 1-747 T219A): T1 sequence (Q96EB6 1-747 E230A) with T219A, A230E
As to conditions: for EC50: hSIRT1 T219A, activation dose-response, Ac-p53(W5) substrate.

The target of the next data set is T3, full-length hSIRT1 E230Q (Homo sapiens, UniProt Q96EB6, E230Q).
T3 construct: His6 (C); made in house
T3 sequence (Q96EB6 1-747 E230Q): T1 sequence (Q96EB6 1-747 E230A) with A230Q
The conditions noted are these: for EC50: hSIRT1 E230Q, activation dose-response, Ac-p53(W5) substrate.

Numbering of substitutions follows the chain as printed.

With `O=C(Nc1ccccn1)N1c2nc(-c3cccc(C(F)(F)F)c3)ccc2N2CC[C@H]1C2` [Example 7], the “EC50 fold shift (mutant EC50/wild-type EC50)” value on full-length hSIRT1 E230A amounted to 1.19; at full-length hSIRT1 T219A, 4.01; on full-length hSIRT1 E230Q, 1.53. Also, the “RVmax fold shift = (wild-type RVmax−1)/(mutant RVmax−1)” value at full-length hSIRT1 E230A turned out to be 3.58; at full-length hSIRT1 T219A, 2.73; on full-length hSIRT1 E230Q, 3.93. Besides, the figures for the 50% effective concentration (EC50) at full-length hSIRT1 E230A, on full-length hSIRT1 T219A and on full-length hSIRT1 E230Q were 2610 nM, 8830 nM and 3360 nM, respectively.

On to `Cc1cnc2c(NC(=O)N3c4nc(-c5cccc(C(F)(F)F)c5)ccc4N4CC[C@H]3C4)cccc2n1` [Example 8], for which the “EC50 fold shift (mutant EC50/wild-type EC50)” value on full-length hSIRT1 E230A is given as 1.11; at full-length hSIRT1 T219A it was 8.26; at full-length hSIRT1 E230Q, 1.21. Also, the “RVmax fold shift = (wild-type RVmax−1)/(mutant RVmax−1)” value on full-length hSIRT1 E230A is reported as 2.39; at full-length hSIRT1 T219A it was 1.64; at full-length hSIRT1 E230Q, 3.07. Moreover, the EC50 (as a rule, the concentration at which the effect is half-maximal) on full-length hSIRT1 E230A worked out at 530 nM; at full-length hSIRT1 T219A it was 3960 nM; on full-length hSIRT1 E230Q, 580 nM.
